Data as given in ChEMBL document CHEMBL1909046, “DrugMatrix in vitro pharmacology data”.

Key:
[1] = DRUGMATRIX: Potassium Channel [KATP] radioligand binding (ligand: [3H] Glyburide); format: cell membranes, Membrane; details: hit-t15; Not Active = under 50% inhibition at 10 µM
[2] = biological target: T1, 5-hydroxytryptamine receptor 1A (Rattus norvegicus, UniProt P19327); format: cell membranes, CHO-K1, Membrane; details: cho-k1; also: in other assays of this panel Not Active means under 50% inhibition at 10 µM
T1 sequence (P19327 whole entry): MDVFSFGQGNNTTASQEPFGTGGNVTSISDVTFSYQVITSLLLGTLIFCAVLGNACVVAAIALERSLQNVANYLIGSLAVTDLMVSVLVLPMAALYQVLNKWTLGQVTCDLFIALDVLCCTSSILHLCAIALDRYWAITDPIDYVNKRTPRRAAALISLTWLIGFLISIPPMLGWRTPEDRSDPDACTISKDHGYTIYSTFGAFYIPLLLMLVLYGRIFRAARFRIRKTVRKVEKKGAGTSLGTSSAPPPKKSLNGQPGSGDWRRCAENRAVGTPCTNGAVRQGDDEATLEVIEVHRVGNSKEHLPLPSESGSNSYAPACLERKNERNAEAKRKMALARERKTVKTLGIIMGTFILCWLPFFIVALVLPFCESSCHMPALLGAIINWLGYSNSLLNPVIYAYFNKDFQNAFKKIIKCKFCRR

Melanocortin receptor 4 = Melanocortin receptor 4 (Homo sapiens, UniProt P32245); format: cell membranes, Membrane; details: hek293; also: in other assays of this panel Not Active means under 50% inhibition at 10 µM
Melanocortin receptor 4, sequence (P32245 whole entry): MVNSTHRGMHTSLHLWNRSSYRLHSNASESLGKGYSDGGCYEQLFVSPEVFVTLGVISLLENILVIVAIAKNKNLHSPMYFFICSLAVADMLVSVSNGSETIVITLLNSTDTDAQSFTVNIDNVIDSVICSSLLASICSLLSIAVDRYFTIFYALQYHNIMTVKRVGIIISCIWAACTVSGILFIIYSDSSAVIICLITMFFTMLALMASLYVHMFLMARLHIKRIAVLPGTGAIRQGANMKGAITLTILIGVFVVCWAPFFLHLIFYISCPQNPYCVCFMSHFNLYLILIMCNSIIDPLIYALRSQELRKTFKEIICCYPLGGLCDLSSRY

[3] = biological target: T2, Nitric oxide synthase, inducible (Mus musculus, UniProt P29477); parameters: species or system Escherichia coli;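 also: inhibition of iNOS enzyme activity measured with L-arginine as substrate; in other assays of this panel Not Active means under 50% inhibition at 10 µM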
T2 sequence (P29477 whole entry): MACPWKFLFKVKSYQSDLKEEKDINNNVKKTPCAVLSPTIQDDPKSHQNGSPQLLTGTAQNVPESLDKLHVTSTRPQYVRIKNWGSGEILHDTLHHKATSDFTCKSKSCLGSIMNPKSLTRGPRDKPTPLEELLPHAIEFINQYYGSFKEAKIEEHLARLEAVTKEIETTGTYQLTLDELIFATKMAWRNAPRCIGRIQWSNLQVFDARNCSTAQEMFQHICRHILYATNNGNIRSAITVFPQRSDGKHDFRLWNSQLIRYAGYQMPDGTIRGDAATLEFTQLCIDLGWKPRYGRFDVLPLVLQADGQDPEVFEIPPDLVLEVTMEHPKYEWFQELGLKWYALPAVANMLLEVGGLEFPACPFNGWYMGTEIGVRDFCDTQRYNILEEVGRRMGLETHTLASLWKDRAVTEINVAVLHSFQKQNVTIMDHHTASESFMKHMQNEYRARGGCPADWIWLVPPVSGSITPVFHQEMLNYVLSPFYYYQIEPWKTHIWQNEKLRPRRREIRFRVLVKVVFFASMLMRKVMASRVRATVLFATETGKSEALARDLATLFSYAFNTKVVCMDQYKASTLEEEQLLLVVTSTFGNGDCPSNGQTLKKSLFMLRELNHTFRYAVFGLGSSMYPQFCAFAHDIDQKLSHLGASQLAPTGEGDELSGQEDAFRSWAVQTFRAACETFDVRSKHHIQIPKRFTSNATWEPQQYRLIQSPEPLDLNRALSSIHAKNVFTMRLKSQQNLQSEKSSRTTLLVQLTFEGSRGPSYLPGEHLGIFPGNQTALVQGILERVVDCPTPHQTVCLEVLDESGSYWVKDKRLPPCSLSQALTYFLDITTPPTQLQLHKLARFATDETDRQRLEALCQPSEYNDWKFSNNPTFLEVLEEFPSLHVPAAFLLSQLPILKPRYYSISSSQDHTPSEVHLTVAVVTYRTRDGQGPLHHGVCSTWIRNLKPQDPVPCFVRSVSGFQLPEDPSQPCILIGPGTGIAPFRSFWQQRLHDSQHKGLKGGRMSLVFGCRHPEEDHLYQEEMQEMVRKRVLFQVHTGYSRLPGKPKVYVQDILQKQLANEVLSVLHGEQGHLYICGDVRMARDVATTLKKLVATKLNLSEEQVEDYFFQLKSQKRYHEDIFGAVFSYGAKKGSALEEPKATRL

[4] = DRUGMATRIX: Phosphodiesterase PDE3 enzyme inhibition (substrate: [3H]cAMP + cAMP); format: tissue-based, Homo sapiens; details: platelet; Not Active = under 50% inhibition at 10 µM
[5] = biological target: Aldo-keto reductase family 1 member B1 (Rattus norvegicus, UniProt P07943); format: tissue-based, Lens of camera-type eye;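 also: inhibition of aldose reductase enzyme activity, measured with DL-glyceraldehyde as the substrate; in other assays of this panel Not Active means under 50% inhibition at 10 µM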
Cathepsin G = biological target: T3, Cathepsin G (Homo sapiens, UniProt P08311); format: tissue-based; details: neutrophil
T3 sequence (P08311 whole entry): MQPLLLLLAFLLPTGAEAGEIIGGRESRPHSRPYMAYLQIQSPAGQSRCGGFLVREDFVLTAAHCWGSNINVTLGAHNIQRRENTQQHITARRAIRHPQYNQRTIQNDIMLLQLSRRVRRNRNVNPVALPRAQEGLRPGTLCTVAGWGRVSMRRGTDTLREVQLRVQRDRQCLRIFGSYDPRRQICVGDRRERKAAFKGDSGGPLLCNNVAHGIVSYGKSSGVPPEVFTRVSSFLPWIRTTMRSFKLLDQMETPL

[6] = biological target: T4, Alpha-2A adrenergic receptor (Homo sapiens, UniProt P08913); format: cell membranes, Sf9, Membrane; details: sf9; also: in other assays of this panel Not Active means under 50% inhibition at 10 µM
T4 sequence (P08913 whole entry): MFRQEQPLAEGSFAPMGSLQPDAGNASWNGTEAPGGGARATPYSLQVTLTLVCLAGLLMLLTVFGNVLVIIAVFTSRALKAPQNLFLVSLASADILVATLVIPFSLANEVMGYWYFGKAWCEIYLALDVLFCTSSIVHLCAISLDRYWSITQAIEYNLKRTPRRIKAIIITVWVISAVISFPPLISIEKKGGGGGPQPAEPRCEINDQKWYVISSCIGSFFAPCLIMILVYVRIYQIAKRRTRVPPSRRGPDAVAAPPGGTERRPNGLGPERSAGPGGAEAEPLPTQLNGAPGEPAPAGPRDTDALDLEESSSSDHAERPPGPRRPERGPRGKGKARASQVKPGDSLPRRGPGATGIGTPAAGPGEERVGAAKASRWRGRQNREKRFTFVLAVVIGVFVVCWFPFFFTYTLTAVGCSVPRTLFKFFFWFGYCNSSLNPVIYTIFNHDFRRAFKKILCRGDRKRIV

[7] = biological target: Vascular endothelial growth factor receptor 1 (Homo sapiens, UniProt P17948); format: cell-based; details: huvec; also: in other assays of this panel Not Active means under 50% inhibition at 10 µM
Vascular endothelial growth factor receptor 1, sequence (P17948 whole entry): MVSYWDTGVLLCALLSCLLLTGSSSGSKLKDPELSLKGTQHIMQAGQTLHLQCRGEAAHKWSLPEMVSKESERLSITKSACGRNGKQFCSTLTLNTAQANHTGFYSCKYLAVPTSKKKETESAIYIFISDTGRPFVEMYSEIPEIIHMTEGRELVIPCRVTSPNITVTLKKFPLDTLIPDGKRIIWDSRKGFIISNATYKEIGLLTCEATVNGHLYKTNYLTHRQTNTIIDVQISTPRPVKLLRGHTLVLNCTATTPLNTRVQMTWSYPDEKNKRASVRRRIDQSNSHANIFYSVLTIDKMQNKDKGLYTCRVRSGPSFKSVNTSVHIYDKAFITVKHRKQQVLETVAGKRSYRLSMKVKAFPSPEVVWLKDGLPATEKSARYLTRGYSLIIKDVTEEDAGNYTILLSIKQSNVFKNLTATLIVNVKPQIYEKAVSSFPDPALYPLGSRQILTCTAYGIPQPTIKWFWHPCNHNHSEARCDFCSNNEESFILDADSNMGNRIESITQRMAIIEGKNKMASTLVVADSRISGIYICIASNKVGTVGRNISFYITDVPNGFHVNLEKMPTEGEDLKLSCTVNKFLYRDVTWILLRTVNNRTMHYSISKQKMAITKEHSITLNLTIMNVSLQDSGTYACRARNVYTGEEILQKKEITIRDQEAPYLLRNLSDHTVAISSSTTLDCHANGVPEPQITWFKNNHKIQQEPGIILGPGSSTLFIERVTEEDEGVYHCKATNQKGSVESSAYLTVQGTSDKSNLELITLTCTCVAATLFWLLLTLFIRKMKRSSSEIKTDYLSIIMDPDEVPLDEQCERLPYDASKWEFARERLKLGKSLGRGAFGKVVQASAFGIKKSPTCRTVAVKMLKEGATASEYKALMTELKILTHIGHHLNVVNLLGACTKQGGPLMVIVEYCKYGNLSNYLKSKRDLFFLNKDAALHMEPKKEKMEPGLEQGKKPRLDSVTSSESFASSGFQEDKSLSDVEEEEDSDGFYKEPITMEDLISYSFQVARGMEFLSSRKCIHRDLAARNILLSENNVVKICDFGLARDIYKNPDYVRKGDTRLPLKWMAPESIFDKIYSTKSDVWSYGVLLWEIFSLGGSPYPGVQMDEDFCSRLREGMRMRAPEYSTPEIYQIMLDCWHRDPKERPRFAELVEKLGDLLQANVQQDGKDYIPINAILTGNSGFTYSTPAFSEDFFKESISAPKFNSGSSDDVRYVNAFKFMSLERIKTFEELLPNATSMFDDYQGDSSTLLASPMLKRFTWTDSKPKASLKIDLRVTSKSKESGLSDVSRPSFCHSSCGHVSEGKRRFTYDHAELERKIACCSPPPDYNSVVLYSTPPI

[8] = DRUGMATRIX: Interleukin IL-1 radioligand binding (ligand: [125I] interleukin 1beta); format: cell membranes, Membrane; details: nih3t3; Not Active = under 50% inhibition at 10 µM
[9] = DRUGMATRIX: GABAA, Chloride Channel, TBOB radioligand binding (ligand: [3H] TBOB); format: cell membranes, Rattus norvegicus, Wistar, Cerebral cortex, Membrane; details: Not Active = under 50% inhibition at 10 µM

Row | Compound | IC50 [1] | Ki [1] | IC50 [2] | IC50 (Melanocortin receptor 4) | IC50 [3] | IC50 [4] | Ki [4] | IC50 [5] | IC50 (Cathepsin G) | IC50 [6] | IC50 [7] | IC50 [8] | Ki [8] | IC50 [9] | Ki [9] | also measured
1 | c1ccc2[nH]c(-c3cscn3)nc2c1 [THIABENDAZOLE] | Not Active | Not Active | Not Active | Not Active | Not Active | Not Active | Not Active | Not Active | Not Active | Not Active | Not Active | Not Active | Not Active | Not Active | Not Active | 
2 | Cc1ccc(C(=O)C(C)CN2CCCCC2)cc1 (configuration not stated) [TOLPERISONE] | Not Active | Not Active | Not Active | Not Active | Not Active | Not Active | Not Active | Not Active | Not Active | Not Active | Not Active | Not Active | Not Active | Not Active | Not Active | 
3 | NC(CO)(CO)CO [TROMETHAMINE] | Not Active | Not Active | Not Active | Not Active | Not Active | Not Active | Not Active | Not Active | Not Active | Not Active | Not Active | Not Active | Not Active | Not Active | Not Active | 
4 | CN1[C@@H]2CC[C@H]1C[C@@H](OC(=O)c1c[nH]c3ccccc13)C2 [TROPISETRON] | Not Active | Not Active | Not Active | Not Active | Not Active | Not Active | Not Active | Not Active | Not Active | Not Active | Not Active | Not Active | Not Active | Not Active | Not Active | 
5 | COc1cc(C(=O)NC2CCCNC2)cc(OC)c1OC (configuration not stated) [TROXIPIDE] | Not Active | Not Active | Not Active | Not Active | Not Active | Not Active | Not Active | Not Active | Not Active | Not Active | Not Active | Not Active | Not Active | Not Active | Not Active | 
6 | CC(C)[C@H](N)C(=O)OCCOCn1cnc2c(=O)nc(N)[nH]c21 [VALACYCLOVIR] | Not Active | Not Active | Not Active | Not Active | Not Active | Not Active | Not Active | Not Active | Not Active | Not Active | Not Active | Not Active | Not Active | Not Active | Not Active | 
7 | CN[C@H](CC(C)C)C(=O)N[C@H]1C(=O)N[C@@H](CC(N)=O)C(=O)N[C@H]2C(=O)N[C@H]3C(=O)N[C@H](C(=O)N[C@H](C(=O)O)c4cc(O)cc(O)c4-c4cc3ccc4O)[C@H](O)c3ccc(c(Cl)c3)Oc3cc2cc(c3O[C@@H]2O[C@H](CO)[C@@H](O)[C@H](O)[C@H]2O[C@H]2C[C@](C)(N)[C@H](O)[C@H](C)O2)Oc2ccc(cc2Cl)[C@H]1O [VANCOMYCIN] | Not Active | Not Active | Not Active | Not Active | Not Active | Not Active | Not Active | Not Active | Not Active | Not Active | Not Active | Not Active | Not Active | Not Active | Not Active | 
8 | COc1ccc(C(CN(C)C)C2(O)CCCCC2)cc1 (configuration not stated) [VENLAFAXINE] | Not Active | Not Active | Not Active | Not Active | Not Active | Not Active | Not Active | Not Active | Not Active | Not Active | Not Active | Not Active | Not Active | Not Active | Not Active | 
9 | IVERMECTIN | Not Active | Not Active | Not Active | Not Active | Not Active | Not Active | Not Active | Not Active | Not Active |  | Not Active | Not Active | Not Active | Not Active | Not Active | Ki [2]: Not Active; Ki (Melanocortin receptor 4): Not Active; Ki [3]: Not Active; Ki [5]: Not Active; Ki (Cathepsin G): Not Active; IC50 ([6]; read-out: IC50): 5.84 µM; Ki ([6]; read-out: Ki): 2.19 µM; Ki [7]: Not Active
